Measurements from publication PMC12022909, “A Multicomponent Reaction-Based Platform Opens New Avenues in Aryl Hydrocarbon Receptor Modulation” (ACS Central Science, 2025).

What was measured:
HaCaT cells = tested on: HaCaT cells; set-up: method as in PMID 25431849, PMID 34418602; details: cited from earlier work
[1] = molecular target: T1, aryl hydrocarbon receptor (AhR) (Homo sapiens, UniProt P35869); test: AhR/XRE-dependent luciferase reporter gene assay in XRE-HepG2 cells; format: cell-based; details: XRE-HepG2 cells, 8 h; unit as in the supplements; read-out: AhR/XRE-dependent luciferase activity EC50
T1 construct: AhR-dependent reporter gene activity was determined in human HepG2 cells stably transfected with an XRE; endogenous in cells; host or cells: XRE-HepG2 (human HepG2 hepatoma cells stably carrying an XRE-luciferase plasmid)
T1 sequence (P35869 11-848): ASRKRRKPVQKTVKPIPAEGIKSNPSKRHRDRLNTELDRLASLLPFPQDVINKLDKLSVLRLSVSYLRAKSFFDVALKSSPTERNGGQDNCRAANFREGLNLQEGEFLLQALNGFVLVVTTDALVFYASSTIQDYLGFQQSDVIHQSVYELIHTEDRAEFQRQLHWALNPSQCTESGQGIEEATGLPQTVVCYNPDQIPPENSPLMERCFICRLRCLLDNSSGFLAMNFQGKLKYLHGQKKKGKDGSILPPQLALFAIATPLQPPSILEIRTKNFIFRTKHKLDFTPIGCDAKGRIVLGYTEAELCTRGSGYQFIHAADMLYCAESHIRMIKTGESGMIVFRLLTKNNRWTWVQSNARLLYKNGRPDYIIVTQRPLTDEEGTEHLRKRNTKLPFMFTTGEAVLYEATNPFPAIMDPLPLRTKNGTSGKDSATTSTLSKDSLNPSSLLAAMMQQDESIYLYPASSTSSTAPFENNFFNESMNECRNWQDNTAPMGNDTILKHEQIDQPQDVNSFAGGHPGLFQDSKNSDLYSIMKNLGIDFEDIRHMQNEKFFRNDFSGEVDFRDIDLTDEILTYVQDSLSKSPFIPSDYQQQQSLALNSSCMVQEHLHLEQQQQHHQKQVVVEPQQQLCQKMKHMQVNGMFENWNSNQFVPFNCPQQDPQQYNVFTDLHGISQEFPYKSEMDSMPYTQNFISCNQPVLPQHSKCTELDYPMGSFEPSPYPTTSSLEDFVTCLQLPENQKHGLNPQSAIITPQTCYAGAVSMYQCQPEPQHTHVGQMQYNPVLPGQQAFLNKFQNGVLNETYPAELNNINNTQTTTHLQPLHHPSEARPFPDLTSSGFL

AhR-GFP = molecular target: T2, AhR-GFP (Homo sapiens, UniProt P35869); test: MCF7 AhR-GFP.IRES.mCherry reporter, flow cytometry quantification of AhR protein levels; format: cell-based; details: 5 μM, 5 h
T2 construct: host or cells: MCF7, lentiviral transduction
Experimental: (§1) Figure 6 Bifunctional AhR probes and AhR reporter in MCF7 cells. (a) Synthetic access to the conjugatable AhR ligand 5m. (b) Structure, yield, and EC50 value of the model amide 12a and MD simulation of AhR with 12a (last snapshot). (c) PROTAC-like compound 12b and dual probes 12c–d. Reaction conditions: (a) 5m (1 equiv), amine (1 equiv), HATU, DIPEA, DMF, rt, 24 h, Ar atm; (b) 5m (2 equiv), diamine (1 equiv), HATU, DIPEA, DMF, rt, 24 h, Ar atm. (d) General setup of the reporter system for quantifying AhR protein levels. (e) The population of MCF7 reporter cells (MCF7 AhR-GFP.IRES.mCherry) gated by flow cytometry and used for quantification of AhR. […] Values represent the ratio of the geometric mean of GFP and mCherry values in the gated population. (g) Change in protein levels relative to vehicle treatment (DMSO) in MCF7 cells treated with 12b at 10 μM for 5 h quantified by TMT labeling and LC/MS analysis versus p-Value. TEXT PRINTED IN THE PICTURE: (b) 12a: EC50 = 0.40 μM […]
To test the effect of these compounds on AhR abundance, we established a cellular reporter in the breast cancer cell line MCF7. AhR in this case is fused to GFP bearing an independently translated mCherry on the same transcript to allow correction for general transcriptional interference of treatments (Figure 6d,e). […]

AhR = molecular target: T3, AhR (Homo sapiens, UniProt P35869); test: Global proteomics (TMT labeling, LC/MS) in MCF7 cells; format: cell-based; details: 10 μM, 5 h
T3 construct: Degradation of endogenous AhR was further confirmed via Western blotting and global proteomics measurements in cells treated with 12b; host or cells: MCF7
T3 sequence (P35869 11-848): T1 sequence (P35869 11-848)
Experimental: as §1
Generation of reporter cell lines
The MCF7.AhR-GFP.IRES.mCherry and MCF7.AhRdPasB(d275-342)-GFP.IRES.mCherryreporter cell line was generated via lentivirus transduction. The coding sequence of the full length AhR (NM_001621.5), as well as the PasB deleted AhR (d275-342) were synthesized and cloned into a Lenti virus transfer plasmid (Artichoke, Addgene #73320), with hereby the resistance was swapped from puromycin to hygromycin. To produce the virus, 550k Lenti-X 293T cells (Takeda #632180) were seeded in a six-well plate with 3 mL of growth medium. The following day, a plasmid solution containing psPAX2 (500 ng), pVSV-G (5 ng), and AhR transfer plasmid (500 ng) was diluted in 21.5 μL of OPTIMEM, reaching a total volume of 32.5 μL. […]
For the flow cytometry experiments 150k cells were seeded in a 24 well-plate format in 0.5 mL growing medium and left to grow in the incubator for 16 h. […] They were subsequently measured on a BD LSR II and the data analyzed with FlowJo software (version 10.5.3, TreeStar). […]

T2 sequence (P08238 whole entry partner, one chain of several): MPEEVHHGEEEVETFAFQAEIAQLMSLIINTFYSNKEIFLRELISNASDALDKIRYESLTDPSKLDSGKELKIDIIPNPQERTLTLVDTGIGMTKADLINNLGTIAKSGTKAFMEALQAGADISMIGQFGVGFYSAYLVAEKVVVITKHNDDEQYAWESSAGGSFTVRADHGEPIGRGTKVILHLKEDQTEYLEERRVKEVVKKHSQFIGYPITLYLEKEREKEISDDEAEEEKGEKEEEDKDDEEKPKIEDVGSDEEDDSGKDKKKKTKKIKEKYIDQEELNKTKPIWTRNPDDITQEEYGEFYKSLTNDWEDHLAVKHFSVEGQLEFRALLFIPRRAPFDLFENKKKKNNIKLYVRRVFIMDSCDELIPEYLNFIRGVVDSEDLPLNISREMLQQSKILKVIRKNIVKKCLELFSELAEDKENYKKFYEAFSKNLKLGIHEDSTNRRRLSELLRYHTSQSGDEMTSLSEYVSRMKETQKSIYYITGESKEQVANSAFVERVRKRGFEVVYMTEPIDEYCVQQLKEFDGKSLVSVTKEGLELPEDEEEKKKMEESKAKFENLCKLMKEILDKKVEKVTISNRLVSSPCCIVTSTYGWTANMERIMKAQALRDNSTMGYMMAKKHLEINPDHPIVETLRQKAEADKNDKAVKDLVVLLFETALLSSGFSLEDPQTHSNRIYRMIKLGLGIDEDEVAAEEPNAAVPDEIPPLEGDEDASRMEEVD
T2 sequence (O00170 whole entry partner, one chain of several): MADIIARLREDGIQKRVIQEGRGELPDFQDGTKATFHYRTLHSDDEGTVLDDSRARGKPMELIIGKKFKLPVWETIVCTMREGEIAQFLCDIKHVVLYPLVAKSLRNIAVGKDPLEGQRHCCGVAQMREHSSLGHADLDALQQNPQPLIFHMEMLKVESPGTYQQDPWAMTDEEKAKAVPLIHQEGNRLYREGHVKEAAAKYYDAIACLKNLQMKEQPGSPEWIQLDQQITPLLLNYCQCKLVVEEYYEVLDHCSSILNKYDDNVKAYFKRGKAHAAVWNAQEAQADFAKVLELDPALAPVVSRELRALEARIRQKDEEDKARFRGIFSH

| EC50 [1] | AhR degradation in reporter system (AhR-GFP) | degradation of common CRBN-thalidomide off-target factors (zinc finger proteins, GSPT1) (AhR) | induced transcriptional activity (CYP1A1 and CYP1B1 protein levels) (AhR) | selectivity of protein degradation (AhR) | Molecule | UVA photosensitization (HaCaT cells) |
| --- | --- | --- | --- | --- | --- | --- |
|  |  |  |  |  | 6-formylindolo[3,2-b]carbazole [FICZ] | nanomolar sensitizer for UVA radiation |
| 0.2 µM | pronounced AhR degradation | absence of degradation | upregulation of CYP1A1 and CYP1B1 | selectivity for AhR degradation | O=C1CCC(N2C(=O)c3cccc(OCCOCCOCCOCCNC(=O)c4ccc5c(-c6c7[nH]c8ccccc8c7cc7[nH]c8ccccc8c67)c[nH]c5c4)c3C2=O)C(=O)N1 (stereo not drawn) [12b] |  |
